Reference: ChEMBL document CHEMBL1133207, “Syntheses and antifilarial profile of 7-chloro-4-(substituted amino) quinolines: a new class of antifilarial agents” (2000)
Calls of active or inactive are those of the source. No cut-off for these calls is given here.

Columns and labels:
Mus musculus [1] = experiment: In vivo macrofilaricidal activity against Acanthocheilonema viteae infection in Mastomys natalensis at 200 mg/kg for 5 days after peroral administration; Inactive; assay type: functional, organism-based; design: dose 200 mg/kg
Mus musculus [2] = experiment: In vivo microfilariacidal activity against Acanthocheilonema viteae infection in Mastomys natalensis at 200 mg/kg for 5 days after peroral administration; Inactive; assay type: functional, organism-based; design: dose 200 mg/kg
Mus musculus [3] = species: Mus musculus; experiment: The compound was evaluated for sterilization effect on female Acanthocheilonema viteae in Mastomys natalensis; Inactive; assay type: functional, organism-based
[4] = In vivo macrofilaricidal activity against Acanthocheilonema viteae infection in Mastomys natalensis at 200 mg/kg for 5 days after peroral administration; assay type: functional; conditions: route oral
[5] = In vivo microfilariacidal activity against Acanthocheilonema viteae infection in Mastomys natalensis at 200 mg/kg for 5 days after peroral administration; assay type: functional; conditions: route oral
[6] = The compound was evaluated for sterilization effect on female Acanthocheilonema viteae in Mastomys natalensis; assay type: functional, Mus musculus; design: concentration or dose not given beside the values

| Compound | Reduction (Mus musculus [1]) | Reduction (Mus musculus [2]) | Reduction (Mus musculus [3]) | Reduction [4] [%] | Reduction [5] [%] | Reduction [6] [%] |
| --- | --- | --- | --- | --- | --- | --- |
| O=[N+]([O-])c1ccc(OCCNc2ccnc3cc(Cl)ccc23)cc1 | inactive | inactive | inactive | – | – | – |
| ClCCNc1ccnc2cc(Cl)ccc12 | inactive | inactive | inactive | – | – | – |
| CCC(C)C(NC(=O)OC(C)(C)C)C(=O)N1CCN(CCNc2ccnc3cc(Cl)ccc23)CC1 (stereo not drawn) | inactive | inactive | inactive | – | – | – |
| NCC(=O)N1CCN(CCNc2ccnc3cc(Cl)ccc23)CC1 | inactive | inactive | inactive | – | – | – |
| CC(C)(C)OC(=O)N1CCCC1C(=O)N1CCN(CCNc2ccnc3cc(Cl)ccc23)CC1 (stereo not drawn) | inactive | inactive | inactive | – | – | – |
| Clc1ccc2c(NCc3ccco3)ccnc2c1 | inactive | inactive | inactive | – | – | – |
| O=C(C1CCCN1)N1CCN(CCNc2ccnc3cc(Cl)ccc23)CC1 (stereo not drawn) | inactive | inactive | inactive | – | – | – |
| CCN(CC)C(=O)N1CCN(C)CC1.O=C(O)CC(O)(CC(=O)O)C(=O)O [DIETHYLCARBAMAZINE CITRATE] | – | – | – | 0 | 90 | 0 |
| OCCNc1ccnc2cc(Cl)ccc12 | – | – | – | 22 | 86 | 0 |
| Clc1ccc2c(NCCN3CCN(c4ccccn4)CC3)ccnc2c1 | inactive | inactive | inactive | – | – | – |
| O=C(O)C(CCCCNc1ccnc2cc(Cl)ccc12)Nc1ccnc2cc(Cl)ccc12 (stereo not drawn) | – | – | – | 0 | 85 | 0 |
| CC(NC(=O)OC(C)(C)C)C(=O)N1CCN(CCNc2ccnc3cc(Cl)ccc23)CC1 (stereo not drawn) | inactive | inactive | inactive | – | – | – |
| CC(N)C(=O)N1CCN(CCNc2ccnc3cc(Cl)ccc23)CC1 (stereo not drawn) | – | – | – | 0 | 0 | 100 |
| O=[N+]([O-])c1ccc(NNc2ccnc3cc(Cl)ccc23)cc1 | – | – | – | 78 | 41 | 50 |
| CC(C)(C)OC(=O)NCC(=O)N1CCN(CCNc2ccnc3cc(Cl)ccc23)CC1 | – | – | – | 0 | 0 | 63 |
| N#Cc1ccc(OCCNc2ccnc3cc(Cl)ccc23)cc1 | – | – | – | 56 | 0 | 0 |
| Clc1ccc2c(NCCN3CCNCC3)ccnc2c1 | inactive | inactive | inactive | – | – | – |
| CC(C)(C)OC(=O)NC(Cc1ccccc1)C(=O)N1CCN(CCNc2ccnc3cc(Cl)ccc23)CC1 (stereo not drawn) | – | – | – | 0 | 0 | 50 |
| NC(Cc1ccccc1)C(=O)N1CCN(CCNc2ccnc3cc(Cl)ccc23)CC1 (stereo not drawn) | inactive | inactive | inactive | – | – | – |
| O=[N+]([O-])c1cc2c(NCCO)ccnc2cc1Cl | – | – | – | 58 | 0 | 0 |
| CCC(C)C(N)C(=O)N1CCN(CCNc2ccnc3cc(Cl)ccc23)CC1 (stereo not drawn) | inactive | inactive | inactive | – | – | – |
